# Source: patent US6352993B1, “Pyrimidine derivatives and processes for the preparation thereof” (Yuhan Corporation, priority 1997, dated 2002)
# pIC50: −log10 of the molar value.
# Experiments:
# [1] = target: proton pump (H+/K+-ATPase) (UniProt P19156); assay: Inhibition of proton pump (H+/K+-ATPase activity); type: biochemical; set-up: other: K+-stimulated proton pump activity, pH 6.0, 37°; details: K+-stimulated proton pump activity, pH 6.0, 37° C., 30 minutes preincubation; read-out: IC50 (concentration inhibiting 50% of the proton pump activity)
# Experimental: (§1) Test 1: Inhibition of proton pump (H^+/K^+-ATPase activity)
# (§2) A proton pump enzyme was prepared by the same method as in the Experiment 1-1 of WO 94/14795. Further, the inhibitory effect of proton pump activity was measured by the same method as in Experiment 1-2 of WO 94/14795.
# (§3) Namely, the proton pump activity stimulated by Mg^++ was used as a negative comparative group, and the activity stimulated by Mg^++ and K^+ was used as a positive comparative group. The comparative compound was omeprazole.
# (§4) Test tubes were divided into 4 groups: Group 1 as negative comparative group(n=3), Group 2 as positive comparative group(n=3), Group 3(n=5×2) to be administered with the compound of the present invention and Group 4(n=5×2) to be administered with the comparative compound.
# (§5) The inhibitory effects of Groups 3 and 4 on proton pump activity were measured by employing the compound prepared in Examples and omeprazole, respectively, each of which was dissolved in dimethylsulfoxide at 5 different concentrations.
# (§6) To each of Groups 1, 2, 3 and 4 were added 100 μl of magnesium chloride(40 mM) dissolved in 40 mM Tris-HCI buffer(ph 6.0) and 100 μg of the enzyme source. The 50 μl of potassium chloride(50 mM) and 50 μl of ammonium chloride(6 mM) dissolved in 40 mM Tris-HCl buffer(pH 6.0) were added to all groups except for group 1.
# (§7) 10 μl of dimethylsulfoxide was added to each of Groups 1 and 2; and to Group 3 was added 10 μl of dimethylsulfoxide solution prepared by dissolving compound of EXAMPLE at 5 different concentration(n=5×2). To Group 4, 10 μl of the solution prepared by dissolving omeprazole in dimethylsulfoxide at 5 different concentration(37.6, 21.4, 12.2, 7.0 and 4.0 μM) was added(n=5×2). 40 mM Tris-HCI buffer(pH=6.0) was added thereto so as to make the total volume 400 μl.
# (§8) Thereafter, the test tube of each Group were placed at 37° C. for 30 minutes for the preincubation. 100 μl ATP solution (6.6 mM) was added until the reaction volume became 500 μl. After the reaction was carried out at 37° C. for 30 minutes, 25% cold trichloroacetic acid was added to terminate the enzyme reaction. The released inorganic phosphate was measured by an automatic analyzer(Express 550, coming).
# (§9) The difference between Group 1 and Group 2 represents the proton pump activity activated by K^+ only. The IC50s of Group 3 and 4 were calculated from Litchfield-wilcoxon equation[see, e.g., J. Pharrnacol. Exp. Ther., 96, 99(1949)]. The concentrations of the test compounds inhibiting 50% of the proton pump activity are represented as IC50 in Table 1.
# [2] = target: proton pump (H+/K+-ATPase) (UniProt P19156); assay: Inhibition of proton pump (H+/K+-ATPase activity); type: biochemical; set-up: Effect ratio; details: relative to omeprazole IC50
# Experimental: as §1, §2, §3, §4, §5, §6, §7, §8, §9
# [3] = tested on: gastric secretion in pylorus-ligated Sprague-Dawly rats; assay: Inhibition of gastric secretion (pylorus-ligated rats, Shay method); type: in vivo; details: 20 mg/kg intraduodenally, 5 hours; for Relative conc.: gastric juice acidity relative to omeprazole, equation (II); for Relative volume: gastric juice amount relative to omeprazole, equation (I); for Relative Acid Output: total acid output relative to omeprazole, equation (III)
# Experimental: Test 2: Inhibition of gastric secretion
# In accordance with the method disclosed in Shay, H., et al., Gastroenterology 5 43-61(1945), Test 2 was carried out.
# Sprague-Dawly rats having a body weight of 170±10 g were divided into 3 groups(n=5) and deprived of food for 24 hours before the experiment with free access to water. Under ether anesthesia, the abdomen was incised, and the pylorus was ligated. As a comparative group, Group 1 was administered intraduodenally in a volume of 0.5 ml/200 g of 30% aqueous polyethylene glycol 400 solution. Groups 2 and 3 were administered intraduodenally with the compound of Example and omeprazole, respectively, each of which was suspended in 30% aqueous polyethylene glycol 400 solution at a concentration of 20 mg/kg. After closing the abdominal cavity, the rats were placed for 5 hours and then killed by cervical dislocation. The stomach was extracted to obtain gastric juice.
# Tne gastric juice was centrifuged at 1,000 g to remove precipitates. The amount and acidity of the gastric juice were measured. Relative volumes, relative acid concentrations and relative acid outputs of the test compounds were calculated from equations(I), (II) and (III) and the results are shown in Table 2.
# Relative volume=(the average amount of gastric juice of Group 1—the average amount of gastric juice of Group 2)/(the average amount of gastric juice of Group 1−the average amount of gastric juice of Group 3)—(I)
# Relative acid concerntration=(the average acidity of Group 1—the average acidity of Group 2)/(the average acidity of Group 1—the average acidity of Group 3)—(II)
# Relative acid output (the total amount of acid output of Group 1—the total amount of acid output of Group 2)/(the total amount of acid output of Group 1—the total amount of acid output of Group 3)—(m)
structure (smiles),measurement,setting,value
"Cc1nc(Nc2ccc(F)cc2)nc(N2CCc3c(O)ccc(O)c3C2C)c1C.Cl (centres unmarked) [Example 43, 5,6-dimethyl-2-(4-fluorophenylamino)-4-(5,8-dihydroxy-1-methyl-1,2,3,4-tetrahydroisoquinolin-2-yl)pyrimidine hydrochloride]",pIC50,[1],6.74
same,Effect ratio,[2],61.7
"COc1ccc2[nH]c([S+]([O-])Cc3ncc(C)c(OC)c3C)nc2c1 (centres unmarked) [Omeprazole, omeprazole, reference compound]",pIC50,[1],4.95
"Cc1csc(Nc2nc(C)c(C)c(N3CCc4ccccc4C3)n2)n1.Cl [Example 23, 5,6-dimethyl-2-(4-methylthiazol-2-yl)amino-4-(1,2,3,4-tetrahydroisoquinolin-2-yl)pyrimidine hydrochloride]",pIC50,[1],6.37
same,Relative conc.,[3],1.34
same,Relative volume,[3],1.58
same,Relative Acid Output,[3],1.23
same,Effect ratio,[2],25.8
"Cc1c(COC(=O)CN2CCOCC2)nc(Nc2ccc(F)cc2)nc1N1CCc2ccccc2C1C.Cl.Cl (centres unmarked) [Example 175, 5-methyl-6-(4-morpholineacetoxymethyl)-2-(4-fluorophenylamino)-4-(t1-methyl-1,2,3,4tetrahydroisoquinolin-2-yl)pyrimidine dihydrochloride]",Relative conc.,[3],0.30
same,Relative volume,[3],0.87
same,Relative Acid Output,[3],0.79
"COCc1nc(Nc2ccc(F)cc2)nc(N2CCc3ccccc3C2C)c1C.Cl (centres unmarked) [Example 28, 6-methoxymethyl-5-methyl-2-(4-fluorophenylamino)-4-(1-methyl-1,2,3,4-tetrahydroisoquinolin-2-yl)pyrimidine hydrochloride]",pIC50,[1],5.76
same,Relative conc.,[3],0.60
same,Relative volume,[3],0.78
same,Relative Acid Output,[3],0.78
same,Effect ratio,[2],6.4
"Cc1nc(Nc2ccc(F)cc2)nc(N2CCc3cc(O)ccc3C2C)c1C.Cl (centres unmarked) [Example 36, 5,6-dimethyl-2-(4-fluorophenylamino)-4-(1-methyl-6-hydroxy-1,2,3,4-tetrahydroisoquinolin-2-yl)pyrimidine hydrochloride]",pIC50,[1],6.51
same,Relative conc.,[3],1.08
same,Relative volume,[3],1.05
same,Relative Acid Output,[3],1.15
same,Effect ratio,[2],35.8
"Cc1nc(NCC(C)C)nc(N2CCc3ccccc3C2C)c1C (centres unmarked) [Example 14, 5,6-dimethyl-2-isobutylamino-4-(1-methyl-1,2,3,4-tetrahydroisoquinolin-2-yl)pyrimidine]",pIC50,[1],5.67
same,Relative conc.,[3],0.41
same,Relative volume,[3],0.93
same,Relative Acid Output,[3],0.79
same,Effect ratio,[2],5.2
"Cc1c(COC(=O)C(C)C)nc(Nc2ccc(F)cc2)nc1N1CCc2ccccc2C1C (centres unmarked) [Example 52, 5-methyl-6-isopropylcarbonyloxymethyl-2-(4-fluorophenylamino)-4-(1-methyl-1,2,3,4-tetrahydroisoquinolin-2-yl)pyrimidine]",Relative conc.,[3],0.88
same,Relative volume,[3],0.86
same,Relative Acid Output,[3],0.96
"Cc1c(COC(=O)CN2CCCCC2)nc(Nc2ccc(F)cc2)nc1N1CCc2ccccc2C1C.Cl.Cl (centres unmarked) [Example 181, 5-rethyl-6-(1-piperidineacetoxymethyl)-2-(4-fluorophenylamino)-4-(1-methyl-1,2,3,4-tetrahydroisoquinolin-2-yl)pyrimidine dihydrochloride]",Relative conc.,[3],0.16
same,Relative volume,[3],0.99
same,Relative Acid Output,[3],0.80
"CCC(=O)OCc1nc(Nc2ccc(F)cc2)nc(N2CCc3ccccc3C2C)c1C (centres unmarked) [Example 51, 5-methyl-6-ethylcarbonyloxymethyl-2-(4-fluorophenylamino)-4-(1-methyl-1,2,3,4-tetrahydroisoquinolin-2-yl)pyrimidine]",Relative conc.,[3],1.02
same,Relative volume,[3],1.09
same,Relative Acid Output,[3],1.06
"Cc1nc(Nc2ccc(F)cc2)nc(N2CCc3cc(OC(=O)c4ccc([N+](=O)[O-])cc4)ccc3C2C)c1C (centres unmarked) [Example 107, 5,6-diinethyl-2-(4-fluorophenylamino)-4-{1-methyl-6-(4-nitrobenzoyloxy)-1,2,3,4-tetrahydroisoquinolin-2-yl}pyrimidine]",Relative conc.,[3],0.56
same,Relative volume,[3],0.62
same,Relative Acid Output,[3],0.73
"Cc1c(COC(=O)CNC(=O)OC(C)(C)C)nc(Nc2ccc(F)cc2)nc1N1CCc2ccccc2C1C (centres unmarked) [Example 139, 5-methyl-6-(N-t-butoxycarbonyl-glycyloxymetyl)-2-(4-fluorophenylamino)-4-(1-methyl-1,2,3,4-tetrahydroisoquinolin-2-yl)pyrimidine]",Relative conc.,[3],0.75
same,Relative volume,[3],1.01
same,Relative Acid Output,[3],1.01
"Cc1c(COC(=O)[C@@H](N)Cc2ccccc2)nc(Nc2ccc(F)cc2)nc1N1CCc2ccccc2C1C.Cl.Cl (some centres unmarked) [Example 172, 5-methyl-6-(phenylalanyloxymethyl)-2-(4-fluorophenylamino)-4-(1-methyl-1,2,3,4-tetrahydroisoquinolin-2-yl)pyrimidine dihydrochloride]",Relative conc.,[3],1.33
same,Relative volume,[3],1.48
same,Relative Acid Output,[3],1.34
"CC(=O)OCc1nc(Nc2ccc(F)cc2)nc(N2CCc3ccccc3C2C)c1C (centres unmarked) [Example 50, 5-methyl-6-acetoxymethyl-2-(4-fluorophenylamino)-4-(1-methyl-1,2,3,4-tetrahydroisoquinolin-2-yl)pyrimidine]",Relative conc.,[3],0.77
same,Relative volume,[3],1.01
same,Relative Acid Output,[3],0.98
"Cc1c(COC(=O)[C@@H](N)C(C)C)nc(Nc2ccc(F)cc2)nc1N1CCc2ccccc2C1C.Cl.Cl (some centres unmarked) [Example 171, 5-methyl-6-valyloxymethyl-2-(4-fluorophenylamino)-4-(1-methyl-1,2,3,4-tetrahydroisoquinolin-2-yl)pyrimidine dibydrochloride]",Relative conc.,[3],1.42
same,Relative volume,[3],1.46
same,Relative Acid Output,[3],1.33
"Cc1c(COC(=O)C(Cc2cn(Cc3ccccc3)cn2)NC(=O)OC(C)(C)C)nc(Nc2ccc(F)cc2)nc1N1CCc2ccccc2C1C (centres unmarked) [Example 144, 5-methyl-6-(N-t-butoxycarbonyl-Im-benzyl-histidyloxymethyl)-2-(4-fluorophenylamino)-4-(1-methyl-1,2,3,4-tetrahydroisoquinolin-2-yl)pyrimidine]",Relative conc.,[3],0.80
same,Relative volume,[3],0.90
same,Relative Acid Output,[3],0.94
"Cc1c(COC(=O)C2CC2)nc(Nc2ccc(F)cc2)nc1N1CCc2ccccc2C1C (centres unmarked) [Example 54, 5-methyl-6-cyclopropylcarbonyloxymethyl-2-(4-fluorophenylamino)-4-(1-methyl-1,2,3,4-tetrahydroisoquinolin-2-yl)pyrimidine]",Relative conc.,[3],0.79
same,Relative volume,[3],0.79
same,Relative Acid Output,[3],0.95
